A word on the GI50: it is the concentration that inhibits growth by half. As usually defined, the IC50 is the point on the concentration scale where inhibition reaches its midpoint.

One test concerns DU145. Briefly: Combination assay, DU145. The format is cell-based. The note with it: Homo sapiens, DU-145; DU145, chemotherapeutic alone; read-out: Chemo GI50. As to the method:
(§1) The combination index (CI) of combinations of certain example compounds and various chemotherapeutic agents in the CellTitetI-Glo® in vitro cell proliferation assays may be tested. A combination index score is calculated by the Chou and Talalay method (CalcuSyn software, Biosoft). The strength of synergy is scored using the ranking system Chou and Talalay: CI less than 0.8 indicates synergy, CI between 0.8 and 1.2 indicates additivity and CI greater than 1.2 indicates antagonism.
The EC50 values of representative combinations are also calculated. The individually measured EC50 values of the chemotherapeutic agent and the example compounds are compared to the EC50 value of the combination. The cell lines are characterised by tumor type. […] Blanco-Aparicio, Carmen; Collazo, Ana Maria Garcia; Oyarzabal, Julen; Leal, Juan F.; Albaran, Maria Isabel; Lima, Francisco Ramos; Pequeno, Belen; Ajenjo, Nuria; Becerra, Mercedes; Alfonso, Patricia; Reymundo, Maria Isabel; Palacios, Irene; Mateos, Genoveva; Quinones, Helena; Corrionero, Ana; Carnero, Amancio; Pevarello, Paolo; Lopez, Ana Rodriguez; Fominaya, Jesus; Pastor, Joaquin; Bischoff, James R. Cancer Letters (Shannon, Ireland) 2011, 300(2), 145-153

Another test relates to BXPC-3. Briefly: Combination assay, BXPC-3. Type of test: cell-based. The note with it: Homo sapiens; BXPC-3, chemotherapeutic alone; read-out: Chemo GI50. The procedure: as §1
(§2) The EC50 values of representative combinations are also calculated. The individually measured EC50 values of the chemotherapeutic agent and the example compounds are compared to the EC50 value of the combination. The cell lines are characterised by tumor type. Combination assays are performed as described in: “Pim 1 kinase inhibitor ETP-45299 suppresses cellular proliferation and synergizes with PI3K inhibition”. Blanco-Aparicio, Carmen; Collazo, Ana Maria Garcia; Oyarzabal, Julen; Leal, Juan F.; Albaran, Maria Isabel; Lima, Francisco Ramos; Pequeno, Belen; Ajenjo, Nuria; Becerra, Mercedes; Alfonso, Patricia; Reymundo, Maria Isabel; Palacios, Irene; Mateos, Genoveva; Quinones, Helena; Corrionero, Ana; Carnero, Amancio; Pevarello, Paolo; Lopez, Ana Rodriguez; Fominaya, Jesus; Pastor, Joaquin; Bischoff, James R. Cancer Letters (Shannon, Ireland) 2011, 300(2), 145-153

The next test has as its system SKMEL19. Briefly: Combination assay, SKMEL19. The format is cell-based. The note with it: Homo sapiens, SK-MEL19; SKMEL19, chemotherapeutic alone; read-out: Chemo GI50. As to the method:
as §1, §2

The subject of a further test is HCT116. Briefly: Combination assay, HCT116. Type of test: cell-based. The note with it: Homo sapiens, HCT-116; HCT116, chemotherapeutic alone; read-out: Chemo GI50. The procedure:
as §1, §2

Test [1] deals with SW620. Briefly: Combination assay, SW620. As to conditions: Homo sapiens, SW-620; SW620, chemotherapeutic alone; read-out: Chemo GI50. Type of test: cell-based, human. As to the method: as §1, §2
For test [2], the target named is T1, intracellular HASPIN (Homo sapiens (Human), UniProt Q8TF76). Briefly: Endogenous phosphoH3 inhibition in SW620 cells growing in 10% FBS. The note with it: semiquantitative, read-out: SW620 pH3(T3). Type of test: cell-based. As to the method: Endogenous phosphoH3 inhibition can be screened in cells growing in 10% FBS. Cells are plated as described before and treated for 8 h with compounds as described before. Then cells are lysated and phospho H3 evaluated as described before. The percentage of phosphorylated H3 vs total H3 in cells treated with DMSO is taken as hundred percent of phosphorylation. The percentage of H3 phosphorylation is finally plotted against concentration for each compound and EC50s for intracellular HASPIN inhibition are calculated using ActivityBase from IDBS.
T1 sequence (Q8TF76 whole entry): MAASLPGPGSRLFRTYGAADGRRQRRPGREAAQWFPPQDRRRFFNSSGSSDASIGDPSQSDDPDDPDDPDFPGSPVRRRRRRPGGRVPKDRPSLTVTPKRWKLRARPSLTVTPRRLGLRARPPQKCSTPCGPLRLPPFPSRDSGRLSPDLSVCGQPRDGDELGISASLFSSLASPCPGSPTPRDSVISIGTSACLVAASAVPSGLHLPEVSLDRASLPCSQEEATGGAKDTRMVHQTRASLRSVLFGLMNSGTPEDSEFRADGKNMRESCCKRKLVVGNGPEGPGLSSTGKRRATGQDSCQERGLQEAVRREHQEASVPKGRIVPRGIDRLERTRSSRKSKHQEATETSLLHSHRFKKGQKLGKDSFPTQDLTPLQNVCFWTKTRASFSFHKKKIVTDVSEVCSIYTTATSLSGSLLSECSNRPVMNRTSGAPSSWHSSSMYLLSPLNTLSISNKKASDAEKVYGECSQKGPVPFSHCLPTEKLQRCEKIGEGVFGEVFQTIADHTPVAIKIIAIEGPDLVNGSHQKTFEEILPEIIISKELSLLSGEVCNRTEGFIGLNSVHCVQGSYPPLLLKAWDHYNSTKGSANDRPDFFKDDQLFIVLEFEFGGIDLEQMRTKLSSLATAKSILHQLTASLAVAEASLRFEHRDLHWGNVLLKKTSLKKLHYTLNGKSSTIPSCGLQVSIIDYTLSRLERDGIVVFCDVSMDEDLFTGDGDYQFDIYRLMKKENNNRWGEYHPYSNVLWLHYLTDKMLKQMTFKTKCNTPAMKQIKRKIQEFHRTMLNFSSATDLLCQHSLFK

The test system of a further test is MDA-MB-231. Briefly: In vitro cell proliferation assay (CellTiter-Glo), MDA-MB-231. The format is cell-based. The note with it: Homo sapiens, MDA-MB-231; growth inhibition, semiquantitative; read-out: GI50 MDA-MB-231.
A further test has as its system MV4:11. Briefly: In vitro cell proliferation assay (CellTiter-Glo), MV4:11. Type of test: cell-based. The note with it: Homo sapiens, MV4-11; growth inhibition, semiquantitative; read-out: GI50 MV4:11. In general terms: ATP-based viability assays read luminescence as a measure of living cells.
The target of a further test is CDK8/Cyclin C (Homo sapiens (Human), UniProt P49336). Briefly: CDK8/Cyclin C binding assay (LanthaScreen Eu-Kinase Binding Assay). The note with it: binding assay. The procedure: The enzyme has been purchase from Invitrogen (PV4402) as a dimer of full-length His-tagged recombinant human proteins.
Chain of CDK8/Cyclin C (P49336 whole entry): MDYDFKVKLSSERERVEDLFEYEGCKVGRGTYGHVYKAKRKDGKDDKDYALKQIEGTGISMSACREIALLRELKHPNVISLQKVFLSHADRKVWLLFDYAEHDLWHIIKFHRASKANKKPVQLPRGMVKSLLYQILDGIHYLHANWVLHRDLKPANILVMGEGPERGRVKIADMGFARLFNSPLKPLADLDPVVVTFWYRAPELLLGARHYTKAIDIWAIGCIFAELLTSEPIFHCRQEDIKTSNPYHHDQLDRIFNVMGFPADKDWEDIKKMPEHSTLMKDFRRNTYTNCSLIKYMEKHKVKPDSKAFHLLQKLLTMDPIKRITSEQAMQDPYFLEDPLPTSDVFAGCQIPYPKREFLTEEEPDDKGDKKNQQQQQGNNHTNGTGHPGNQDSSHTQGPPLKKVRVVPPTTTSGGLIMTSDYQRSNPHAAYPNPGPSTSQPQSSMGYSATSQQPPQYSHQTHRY
Chain of CDK8/Cyclin C (P24863 whole entry partner): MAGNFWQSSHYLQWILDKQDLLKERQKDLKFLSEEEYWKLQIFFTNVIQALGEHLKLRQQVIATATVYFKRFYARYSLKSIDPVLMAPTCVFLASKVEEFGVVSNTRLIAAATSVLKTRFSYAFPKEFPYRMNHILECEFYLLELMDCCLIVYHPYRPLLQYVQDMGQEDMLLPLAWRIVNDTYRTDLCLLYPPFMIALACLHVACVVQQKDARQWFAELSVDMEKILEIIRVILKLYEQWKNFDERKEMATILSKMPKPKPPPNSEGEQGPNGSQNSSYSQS
Assays were performed in 384-well plates. The final read out was generated using an EnVision plate reader (Perkin-Elmer).

Another test relates to Molm13. Briefly: In vitro cell proliferation assay (CellTiter-Glo), Molm13. The format is cell-based. As to conditions: Homo sapiens, MOLM-13; growth inhibition, semiquantitative; read-out: GI50 Molm13.
The target of a further test is CDK19/Cyclin C (Homo sapiens (Human), UniProt Q9BWU1). Briefly: CDK19/Cyclin C binding assay (LanthaScreen Eu-Kinase Binding Assay). The note with it: read-out: CDK19-CYCC IC50. The method, boiled down:
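LanthaScreen TR-FRET tracer-displacement format with 2 nM Cdk19-Cyclin C, 20 nM tracer and 2 nM Eu-anti-GST antibody. The buffer was 50 mM HEPES pH 7.5, 10 mM MgCl2, 1 mM EGTA, 0.01% Brij-35, with 1% DMSO final. Compounds were tested as 1:3 serial dilutions and incubated for 60 min at 25 °C.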
(Time-resolved FRET reads energy transfer from a long-lived donor to a nearby acceptor.)

For test [3], the system named is SW620. Briefly: In vitro cell proliferation assay (CellTiter-Glo), SW620. As to conditions: Homo sapiens, SW-620; growth inhibition, semiquantitative; read-out: GI50 SW620. Type of test: cell-based, human.
The next test deals with intracellular CDK8 (Homo sapiens (Human), UniProt P49336). Briefly: Endogenous phosphoSTAT1 inhibition in SW620 cells growing in 10% FBS. Type of test: cell-based. The note with it: semiquantitative, read-out: SW620 P-STAT1(S727). As to the method:
Endogenous phosphoSTAT1 inhibition can be screened in cells growing in 10% FBS. Cells are plated as described before and treated for 8 h with compounds as described before. Then cells are lysated and phospho STAT1 is evaluated as described before. The percentage of phosphorylated STAT1 vs total STAT1 in cells treated with DMSO is taken as hundred percent of phosphorylation. The percentage of STAT1 phosphorylation is finally plotted against concentration for each compound and EC50s for intracellular CDK8 inhibition are calculated using ActivityBase from IDBS.

In another test the target is Haspin kinase (Homo sapiens (Human), UniProt Q8TF76). Briefly: Haspin kinase assay (ADP-Glo). As to conditions: ATP 150 μM. Type of test: biochemical. The method, boiled down:
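ADP-Glo luminescence measured the intrinsic ATPase activity, without peptide substrate, of the GST-tagged human Haspin kinase domain (20 nM) at 150 μM ATP. Reactions ran 60 min at 30 °C in HEPES pH 7.4 buffer with 10 mM MgCl2 and 1% DMSO. Inhibition was calculated against no-compound controls across 1:3 dilution series.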
On the technique in general: ADP-Glo first removes unused ATP, then detects ADP through luciferase.

The target in test [4] is T1, intracellular HASPIN. Briefly: Cellular HASPIN inhibition assay, western blot phospho H3T3 in synchronized SW620 cells. As to conditions: semiquantitative, read-out: SW620 PH3(T3) in synchronized cells. The format is cell-based. The procedure:
Compounds can be screened for their ability to inhibit intracellular HASPIN using a western blot assay to detect phosphorylation of the HASPIN substrate H3T3 in synchronized cells. SW620 cells are plated at 200000 cells per well in 6-well plates (Solmeglas 13118) in RPMI media (Sigma-Aldrich R6504) supplemented with 10% foetal bovine serum (Sigma-Aldrich F7524), Penicillin/Streptomycin solution diluted 1:100 (Gibco 15070-063), and fungizone (Gibco, 15290-018), and allowed to adhere overnight at 37° C. in 5% CO2. Cells are then treated 16 h hours with Nocadazole (Sigma-Aldrich M1404) at 250 ng/ml to arrest them in mitosis. Proteasoma inhibitor MG132 (Sigma-Aldrich C2211) is added to a final concentration of […] to keep cells arrested in mitosis. Compounds are then added to the cell media from a final concentration of 10 μM in 10-fold serial dilutions and the cells are incubated at 37° C. in 5% CO2. After 1 hour and 30 minutes of treatment with the compounds, the cells are washed in PBS, lysed adding 100 μl of protein lysis buffer (62.5 mM Tris pH 6.8 al 6.25%, 2% SDS y 10% glycerol) incubation 10 minutes at room temperature and heating at 95° C. 10 min. The protein content of the lysates is determined by DC protein assay (Biorad, Ref. 5000116). The proteins are resolved by SDS-PAGE and transferred to nitrocellulose membrane (VWR International eurolab, Ref. 732-4007). The membranes are incubated overnight at 4° C. with antibodies specific for total H3 (Millipore #07424), phosphothreonine-3 H3 (Cell Signaling Ref. 14269) they are washed and then incubated with IRDye800 conjugated anti-mouse (Pierce/Cultek, 35521) and Alexa Fluor 680 goat anti-rabbit IgG secondary antibodies (Invitrogen, A21076). The bands are visualized and quantified using an Odyssey infrared imaging system (Li-Cor Biosciences). The percentage of phosphorylated H3 vs total H3 in synchronized cells is taken as hundred percent of phosphorylation. The percentage of H3 phosphorylation is finally plotted against concentration for each compound and EC50s for intracellular HASPIN inhibition are calculated using ActivityBase from IDBS.

Chain of Haspin kinase (Q8TF76 484-798): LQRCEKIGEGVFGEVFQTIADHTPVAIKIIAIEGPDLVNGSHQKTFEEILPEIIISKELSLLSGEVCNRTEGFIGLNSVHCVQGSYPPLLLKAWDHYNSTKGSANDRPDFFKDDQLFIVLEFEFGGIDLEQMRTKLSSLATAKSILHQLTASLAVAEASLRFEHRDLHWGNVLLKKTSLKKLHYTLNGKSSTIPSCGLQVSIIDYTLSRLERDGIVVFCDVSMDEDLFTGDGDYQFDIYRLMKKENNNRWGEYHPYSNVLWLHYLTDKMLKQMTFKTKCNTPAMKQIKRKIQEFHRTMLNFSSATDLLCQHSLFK
Chain of intracellular CDK8 (P49336 whole entry): as the sequence (P49336 whole entry) above
Chain of intracellular CDK8 (P24863 whole entry partner): as the sequence (P24863 whole entry partner) above
Chain of intracellular CDK8 (Q93074 whole entry partner): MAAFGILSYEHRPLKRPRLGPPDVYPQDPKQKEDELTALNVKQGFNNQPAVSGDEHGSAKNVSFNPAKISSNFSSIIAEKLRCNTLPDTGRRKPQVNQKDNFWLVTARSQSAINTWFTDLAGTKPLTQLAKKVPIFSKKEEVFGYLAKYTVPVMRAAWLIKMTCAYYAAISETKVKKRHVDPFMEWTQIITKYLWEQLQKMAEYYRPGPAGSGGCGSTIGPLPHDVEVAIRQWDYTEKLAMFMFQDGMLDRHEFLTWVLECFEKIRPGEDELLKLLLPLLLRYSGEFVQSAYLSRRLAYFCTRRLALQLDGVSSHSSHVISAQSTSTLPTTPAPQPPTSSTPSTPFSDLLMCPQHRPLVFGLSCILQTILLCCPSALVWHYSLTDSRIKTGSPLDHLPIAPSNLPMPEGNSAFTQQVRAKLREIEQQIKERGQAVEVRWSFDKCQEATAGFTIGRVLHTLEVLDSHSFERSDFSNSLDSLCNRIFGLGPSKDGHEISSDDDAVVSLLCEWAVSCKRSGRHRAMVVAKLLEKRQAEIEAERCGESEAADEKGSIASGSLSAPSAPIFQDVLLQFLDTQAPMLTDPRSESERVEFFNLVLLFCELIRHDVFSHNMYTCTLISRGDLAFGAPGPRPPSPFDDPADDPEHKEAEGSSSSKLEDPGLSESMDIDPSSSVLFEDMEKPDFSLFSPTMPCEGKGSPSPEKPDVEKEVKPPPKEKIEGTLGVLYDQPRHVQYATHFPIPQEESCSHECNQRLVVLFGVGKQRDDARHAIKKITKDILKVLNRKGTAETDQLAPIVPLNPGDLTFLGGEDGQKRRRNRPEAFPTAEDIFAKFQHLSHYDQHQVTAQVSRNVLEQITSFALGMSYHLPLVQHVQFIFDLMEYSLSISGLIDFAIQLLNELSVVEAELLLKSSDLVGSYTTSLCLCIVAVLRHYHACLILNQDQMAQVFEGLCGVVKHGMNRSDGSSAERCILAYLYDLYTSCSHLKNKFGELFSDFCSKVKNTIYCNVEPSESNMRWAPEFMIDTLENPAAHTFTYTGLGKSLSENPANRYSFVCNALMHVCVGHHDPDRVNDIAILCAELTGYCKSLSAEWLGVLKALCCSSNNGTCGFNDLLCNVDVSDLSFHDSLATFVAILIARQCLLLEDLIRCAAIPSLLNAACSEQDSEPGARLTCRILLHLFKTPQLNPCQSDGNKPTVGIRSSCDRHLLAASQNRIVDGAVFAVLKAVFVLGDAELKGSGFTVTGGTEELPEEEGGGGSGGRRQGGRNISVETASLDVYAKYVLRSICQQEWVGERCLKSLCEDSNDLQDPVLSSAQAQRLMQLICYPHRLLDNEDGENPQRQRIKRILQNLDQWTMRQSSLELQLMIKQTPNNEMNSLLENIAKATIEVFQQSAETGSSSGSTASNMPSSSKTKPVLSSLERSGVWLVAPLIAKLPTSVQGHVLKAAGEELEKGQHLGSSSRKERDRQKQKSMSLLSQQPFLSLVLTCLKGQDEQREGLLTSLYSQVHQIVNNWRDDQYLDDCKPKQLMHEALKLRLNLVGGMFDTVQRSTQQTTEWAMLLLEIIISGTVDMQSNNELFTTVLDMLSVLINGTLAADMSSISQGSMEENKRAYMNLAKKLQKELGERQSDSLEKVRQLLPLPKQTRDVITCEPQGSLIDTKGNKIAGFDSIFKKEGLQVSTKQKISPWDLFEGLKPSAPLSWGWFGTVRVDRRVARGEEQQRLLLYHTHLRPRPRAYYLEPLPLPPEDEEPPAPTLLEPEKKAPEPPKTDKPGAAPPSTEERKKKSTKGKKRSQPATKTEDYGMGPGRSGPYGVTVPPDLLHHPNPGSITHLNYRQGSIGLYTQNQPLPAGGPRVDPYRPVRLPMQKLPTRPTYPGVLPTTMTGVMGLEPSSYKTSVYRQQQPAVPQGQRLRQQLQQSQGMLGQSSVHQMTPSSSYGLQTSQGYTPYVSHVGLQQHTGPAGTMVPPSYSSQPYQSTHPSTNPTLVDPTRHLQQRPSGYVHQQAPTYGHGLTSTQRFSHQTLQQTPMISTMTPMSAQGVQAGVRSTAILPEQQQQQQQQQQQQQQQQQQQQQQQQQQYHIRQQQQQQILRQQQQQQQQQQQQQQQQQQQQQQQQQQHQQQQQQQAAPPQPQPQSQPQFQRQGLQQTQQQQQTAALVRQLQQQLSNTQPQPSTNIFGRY
Chain of CDK19/Cyclin C (Q9BWU1 whole entry): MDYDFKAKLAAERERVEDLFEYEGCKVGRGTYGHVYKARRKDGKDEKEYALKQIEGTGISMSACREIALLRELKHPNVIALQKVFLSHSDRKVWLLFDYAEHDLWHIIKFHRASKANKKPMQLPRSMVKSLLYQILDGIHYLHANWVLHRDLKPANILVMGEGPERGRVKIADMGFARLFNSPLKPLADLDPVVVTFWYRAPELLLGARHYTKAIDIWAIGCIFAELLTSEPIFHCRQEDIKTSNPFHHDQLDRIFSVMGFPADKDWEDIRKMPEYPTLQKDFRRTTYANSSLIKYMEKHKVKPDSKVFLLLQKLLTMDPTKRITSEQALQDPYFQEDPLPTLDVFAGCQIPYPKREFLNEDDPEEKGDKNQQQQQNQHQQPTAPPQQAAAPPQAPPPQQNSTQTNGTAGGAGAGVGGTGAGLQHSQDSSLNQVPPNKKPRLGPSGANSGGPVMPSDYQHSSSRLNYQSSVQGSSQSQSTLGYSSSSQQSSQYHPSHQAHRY
Chain of CDK19/Cyclin C (P24863 whole entry partner): as the sequence (P24863 whole entry partner) above

On to `C[C@@H](Oc1cc(-c2cnn(C3CCNCC3)c2)cnc1N)c1c(Cl)ccc(F)c1Cl` [Crizotinib, crizotinib, reference compound], for which the concentration for 50% growth inhibition (GI50) in the test with DU145 was found to be 20000 nM; with BXPC-3, 5000 nM; with SKMEL19, 5000 nM; with HCT116, 5000 nM; in the test with SW620 [1], 1000 nM.
`CCn1c(C(N)=O)cc2c1-c1ccncc1OC21CCN(CC(F)(F)F)CC1` [Example 79]: the EC50 on intracellular HASPIN [2] and at intracellular CDK8 was under 500 nM throughout. Besides, the 50% growth inhibitory concentration (GI50) in the test with MDA-MB-231 is 1000 to 10000 nM; in the test with MV4:11, under 1000 nM; in the test on Molm13, under 1000 nM; with SW620 [3], 1000 to 10000 nM. Further, the results for the IC50 on CDK8/Cyclin C, at CDK19/Cyclin C and on Haspin kinase were 1.11 nM, 3.14 nM and 38.6 nM, respectively.
On to `CCn1c(C(N)=O)cc2c1-c1ccncc1OC21CCOCC1` [Example 82], for which the EC50 at intracellular HASPIN [2] and at intracellular CDK8 was under 500 nM each time. Besides, the concentration for 50% growth inhibition (GI50) in the test with MDA-MB-231 was 1000 to 10000 nM; in the test with MV4:11 it was under 1000 nM; in the test on Molm13 it was under 1000 nM; with SW620 [3], 1000 to 10000 nM. The IC50 at CDK8/Cyclin C worked out at 2.19 nM; at CDK19/Cyclin C it was 4.58 nM; on Haspin kinase it was 12.8 nM.
For the compound `NC(=O)c1cc2c(n1CCF)-c1ccncc1OC21CCCCC1` [Example 84], the EC50 on intracellular HASPIN [2] and at intracellular CDK8 was under 500 nM throughout. Also, the GI50 is 1000 to 10000 nM in the test with MDA-MB-231, under 1000 nM in the test on MV4:11, under 1000 nM in the test with Molm13 and 1000 to 10000 nM in the test with SW620 [3]. The half-inhibitory concentration (IC50) was 1.41 nM at CDK8/Cyclin C, 148 nM on CDK19/Cyclin C and 42.1 nM at Haspin kinase.
In the case of `CCn1c(C(N)=O)cc2c1-c1ccncc1OC21CCNCC1` [Example 91], the EC50 at intracellular HASPIN [2] and at intracellular HASPIN [4] was under 500 nM each time. Moreover, the GI50 in the test with MDA-MB-231 is 1000 to 10000 nM; in the test with MV4:11, under 1000 nM; in the test with Molm13, under 1000 nM; in the test on SW620 [3], 1000 to 10000 nM. In addition, the IC50 is 301 nM on CDK8/Cyclin C and 16.5 nM at Haspin kinase.

(Values after patent US10208056B2, “Condensed tricyclic compounds as protein kinase inhibitors” (FUNDACIÓN DEL SECTOR PÚBLICO ESTATAL CENTRO NACIONAL DE …, priority 2015, dated 2019).)
